# Legend:
# hTRPA1 = target: T1, hTRPA1 (Homo sapiens, UniProt O75762); assay: Whole-cell patch clamp recording, cells stably expressing hTRPA1; format: cell-based; conditions: NGCC 10^3 µM
# T1 construct: expressed in transfected cells
# Protocol: Flp-In 293 cell lines stably expressing hTRPA1constructed as previously reported was a gift from the professor Takumi Misaka at University of Tokyo. The hTRPA1-expressing cells were cultured in DMEM containing 10% FBS and 0.02% hygromycin B (Invitrogen). Flp-In 293 cell lines were maintained in DMEM containing 10% FBS. All cells were incubated at 37°C in a humidified atmosphere of 5% CO2.
# (§1) The whole-cell configuration was used to voltage-clamp at room temperature (22–25°C). Electrodes pulled from glass micropipette capillaries (Sutter Instrument) had resistances of 2–2.5 MΩ, and series resistance errors were compensated >60%. Fast and slow capacitances were compensated before the application of test-pulse. Recordings were performed using aHEKAEPC-10 amplifier with pulse software (HEKA Elektronik). The pipette solution contained: 140 mM KCl, 5 mM MgCl2, 10 mM HEPES, 0.1 mM 1,2-bis(2-aminophenoxy) ethane N,N,N’,N’-tetraacetic acid(BAPTA), 3 mM Na2ATP, and 0.1 mM Na3GTP, adjusted to pH 7.4 with KOH. The external Ringer’s solution used for recording TRPV1 and TRPA1 currents contained: 150 mM NaCl, 5 mM KCl, 1 mM MgCl2, 2 mM EGTA, 10 mM Glucose, and 10 mM HEPES, adjusted to pH 7.4 with NaOH. TRPV1 and TRPA1 currents were recorded by holding the cell at −80 mV. The external Ringer’s solution used for recording ASIC current contained: 160 mM NaCl, 5 mM KCl, 1 mM MgCl2, 2 mM CaCl2, and 10 mM HEPES, adjusted to pH 7.4 with tetramethylammonium hydroxide. For acidic solution of pH 6.0, HEPES was replaced with MES. ASIC currents were recorded by holding the cell at −70 mV. Reagents were obtained as follows: BAPTA, Na2ATP, Na3GTP, EGTA, and tetramethylammonium hydroxide (Sigma), HEPES (Calbiochem), MES (Alfa Aesar), and other chemicals (Merck).
# hTRPV1 = target: T2, hTRPV1 (Homo sapiens, UniProt Q8NER1); assay: Whole-cell patch clamp recording, hTRPV1-expressing HEK293T cells; format: cell-based; conditions: capsaicin 100 nM; NGCC 10^3 µM; holding -80 mV
# T2 construct: expressed in transfected cells; host or cells: HEK293T
# Protocol: (§2) Mouse ASIC1a (mASIC1a) was a kind gift from John A. Wemmie (University of Iowa, IA, USA). For electrophysiological experiments, HEK293T cells were cultured in DMEM supplemented with 10% FBS and 0.2% penicillin/streptomycin and transiently transfected using Lipofectamine 2000 (Invitrogen) with various cDNAs. For TRPV1 channel expression, cells were transfected with hTRPV1, for ASIC1a homomeric channel expression, cells were transfected with mASIC1a. When needed, 0.1–0.2 µg of cDNA encoding tetrameric red fluorescence protein (DsRed) was co-transfected with the cDNA as a marker for successfully transfected cells. For non-transfected cells, cells were transfected with 0.1–0.2 µg of cDNA encoding DsRed alone. The next day, cells were plated onto poly-L-lysine-coated coverslip chips, and fluorescent cells were studied within 1–2 days.
# as §1
# mASIC1a = target: T3, mASIC1a (Mus musculus, UniProt Q6NXK8); assay: Whole-cell patch clamp recording, mASIC1a-expressing HEK293T cells; format: cell-based; conditions: NGCC 1 mM; holding -70 mV; n = 5
# T3 construct: expressed in transfected cells; host or cells: HEK293T (cDNA gift from John A. Wemmie, University of Iowa)
# T3 sequence (Q6NXK8 1-526): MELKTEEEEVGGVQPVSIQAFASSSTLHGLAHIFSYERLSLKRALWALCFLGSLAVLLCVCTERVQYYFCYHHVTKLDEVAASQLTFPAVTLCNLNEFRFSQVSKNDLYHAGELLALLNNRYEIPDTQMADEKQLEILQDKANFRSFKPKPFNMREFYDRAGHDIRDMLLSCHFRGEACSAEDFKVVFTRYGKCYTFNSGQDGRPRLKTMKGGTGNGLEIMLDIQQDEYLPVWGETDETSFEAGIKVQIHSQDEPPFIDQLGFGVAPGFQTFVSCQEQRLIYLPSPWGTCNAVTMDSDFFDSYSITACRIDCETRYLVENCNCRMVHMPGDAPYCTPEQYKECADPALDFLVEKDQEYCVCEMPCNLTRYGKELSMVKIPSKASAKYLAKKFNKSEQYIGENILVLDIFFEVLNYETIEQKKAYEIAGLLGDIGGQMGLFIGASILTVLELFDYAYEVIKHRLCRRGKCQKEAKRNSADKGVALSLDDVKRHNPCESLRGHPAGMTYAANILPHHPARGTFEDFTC
# Protocol: as §2
# (§3) The whole-cell configuration was used to voltage-clamp at room temperature (22–25°C). Electrodes pulled from glass micropipette capillaries (Sutter Instrument) had resistances of 2–2.5 MΩ, and series resistance errors were compensated >60%. Fast and slow capacitances were compensated before the application of test-pulse. Recordings were performed using aHEKAEPC-10 amplifier with pulse software (HEKA Elektronik). […] TRPV1 and TRPA1 currents were recorded by holding the cell at −80 mV. […] ASIC currents were recorded by holding the cell at −70 mV. […]
# non-transfected cells = assay: Whole-cell patch clamp recording, non-transfected cells (control); format: cell-based, human; conditions: capsaicin 100 nM, AITC 100 µM, NGCC 10^3 µM
# Protocol: as §2, §3
# T1 sequence (O75762 whole entry): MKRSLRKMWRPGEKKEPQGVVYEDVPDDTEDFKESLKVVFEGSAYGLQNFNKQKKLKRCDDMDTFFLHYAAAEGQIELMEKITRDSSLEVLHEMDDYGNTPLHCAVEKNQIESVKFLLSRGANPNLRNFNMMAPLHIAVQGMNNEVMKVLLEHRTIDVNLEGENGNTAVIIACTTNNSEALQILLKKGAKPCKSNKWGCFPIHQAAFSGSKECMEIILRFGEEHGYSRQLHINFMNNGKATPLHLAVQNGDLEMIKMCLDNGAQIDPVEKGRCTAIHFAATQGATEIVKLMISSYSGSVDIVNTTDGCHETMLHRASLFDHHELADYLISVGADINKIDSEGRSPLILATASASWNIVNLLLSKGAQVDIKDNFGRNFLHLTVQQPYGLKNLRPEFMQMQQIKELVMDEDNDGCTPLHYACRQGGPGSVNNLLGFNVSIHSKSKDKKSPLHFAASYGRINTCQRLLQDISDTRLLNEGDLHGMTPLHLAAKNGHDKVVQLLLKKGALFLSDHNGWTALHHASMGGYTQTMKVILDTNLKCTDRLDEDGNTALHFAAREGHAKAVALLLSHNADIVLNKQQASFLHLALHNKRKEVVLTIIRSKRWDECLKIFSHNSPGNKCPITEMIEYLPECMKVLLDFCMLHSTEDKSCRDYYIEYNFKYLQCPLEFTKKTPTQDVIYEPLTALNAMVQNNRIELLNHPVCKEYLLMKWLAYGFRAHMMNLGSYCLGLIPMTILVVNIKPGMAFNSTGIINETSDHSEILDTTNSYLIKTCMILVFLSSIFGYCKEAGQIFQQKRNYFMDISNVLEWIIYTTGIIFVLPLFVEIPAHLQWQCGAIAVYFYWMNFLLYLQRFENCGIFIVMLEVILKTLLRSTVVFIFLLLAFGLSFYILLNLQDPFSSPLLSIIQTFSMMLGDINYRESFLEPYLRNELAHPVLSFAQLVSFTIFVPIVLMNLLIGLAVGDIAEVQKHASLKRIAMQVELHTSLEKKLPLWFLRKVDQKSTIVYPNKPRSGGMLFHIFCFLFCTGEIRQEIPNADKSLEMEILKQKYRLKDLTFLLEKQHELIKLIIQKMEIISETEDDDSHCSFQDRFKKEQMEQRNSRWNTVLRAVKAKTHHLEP
# T2 sequence (Q8NER1 whole entry): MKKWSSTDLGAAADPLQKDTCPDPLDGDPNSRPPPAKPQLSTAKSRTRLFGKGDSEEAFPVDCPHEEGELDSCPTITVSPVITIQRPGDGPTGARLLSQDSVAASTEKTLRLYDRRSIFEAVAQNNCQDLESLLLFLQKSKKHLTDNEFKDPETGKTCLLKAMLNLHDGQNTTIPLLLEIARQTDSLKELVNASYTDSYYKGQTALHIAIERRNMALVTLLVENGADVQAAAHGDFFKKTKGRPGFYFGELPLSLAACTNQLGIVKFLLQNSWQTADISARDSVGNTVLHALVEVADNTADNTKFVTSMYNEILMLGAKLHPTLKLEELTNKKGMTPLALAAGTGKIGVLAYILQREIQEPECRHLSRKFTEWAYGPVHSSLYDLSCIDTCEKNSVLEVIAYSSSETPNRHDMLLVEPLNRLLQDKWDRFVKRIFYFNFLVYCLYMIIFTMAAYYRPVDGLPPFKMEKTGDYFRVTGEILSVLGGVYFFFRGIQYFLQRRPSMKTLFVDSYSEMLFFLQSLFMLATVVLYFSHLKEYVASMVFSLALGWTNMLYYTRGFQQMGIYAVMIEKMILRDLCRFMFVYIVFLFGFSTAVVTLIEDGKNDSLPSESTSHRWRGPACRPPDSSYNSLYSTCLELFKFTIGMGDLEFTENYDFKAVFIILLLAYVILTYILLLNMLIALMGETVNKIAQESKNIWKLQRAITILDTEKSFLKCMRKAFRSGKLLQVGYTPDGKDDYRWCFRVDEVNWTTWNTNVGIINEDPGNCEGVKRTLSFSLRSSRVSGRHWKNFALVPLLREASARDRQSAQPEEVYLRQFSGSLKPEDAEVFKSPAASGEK
structure (smiles),measurement,setting,value
"CC(C)=CCC/C(C)=C/CNC(=O)C1CC1 [NGCC, N-geranylcyclopropylcarboxamide]",inward current in hTRPA1-expressing cells,"hTRPA1; AITC 100 µM, holding -80 mV",induced an inward current
same,amplitude of current compared with AITC (100 µM),hTRPA1; same cell,bigger than that of AITC
same,inward current in cells expressing hTRPV1,hTRPV1,triggered an inward current
same,activation of ASIC1a homomeric channels,mASIC1a,not sensitive
same,current in non-transfected cells,non-transfected cells,no current
